Article PMC6581572 (ChemMedChem, 2019)
Where two headings read alike, the source gives them in different places.

Legend:
IAV endonuclease = IAV endonuclease (Influenza A virus, UniProt C3W5S0); assay: High throughput endonuclease assay; format: biochemical, influenza A/California/04/09 H1N1; details: for LE kcal/(mol·NHA): ligand efficiency, Tables 1 and 2
[1] = test system: influenza A/Puerto Rico/08/1934 H1N1 expressing mCherry (PR8-mCherry); details: read-out: EC50, antiviral activity; cellular assay, previously reported; cited from earlier work
[2] = Chemical stability of the isolated compound; format: physicochemical; details: isolated tetrazole product, two synthetic routes

Row | Compound | LE kcal/(mol·NHA) (IAV endonuclease; LE = −RTln(IC50)/NHA) | IC50 (IAV endonuclease) | other results
1 | O=c1[nH]c(-c2cccc3ccccc23)c(-c2ccc(-c3nnn[nH]3)cc2)cc1O [Compound 9, 5-(4-(1H-Tetrazol-5-yl)phenyl)-3-hydroxy-6-(naphthalen-1-yl)pyridin-2(1H)-one] | 0.354 kcal/(mol·NHA) | – | –
2 | O=c1[nH]c(Cc2ccc3ccccc3c2)c(-c2ccc(-c3nnn[nH]3)cc2)cc1O [Compound 23, 5-(4-(1H-Tetrazol-5-yl)phenyl)-3-hydroxy-6-(naphthalen-2-ylmethyl)pyridin-2(1H)-one] | 0.328 kcal/(mol·NHA) | – | –
3 | O=c1[nH]c(-c2ccc(-c3nnn[nH]3)cc2)c(-c2ccc(F)cc2)cc1O [Compound 7] | 0.403 kcal/(mol·NHA) | – | –
4 | N#Cc1ccc(-c2cc(O)c(=O)[nH]c2Cc2cccc3ccccc23)cc1 [Compound 19, 4-(5-Hydroxy-2-(naphthalen-1-ylmethyl)-6-oxo-1,6-dihydropyridin-3-yl)benzonitrile] | 0.353 kcal/(mol·NHA) | 114 nM | –
5 | O=c1[nH]c(Cc2ccc(F)cc2)c(-c2ccc(-c3nnn[nH]3)cc2)cc1O [Compound 21, 5-(4-(1H-Tetrazol-5-yl)phenyl)-6-(4-fluorobenzyl)-3-hydroxypyridin-2(1H)-one] | 0.385 kcal/(mol·NHA) | 26 nM | –
6 | N#Cc1ccc(-c2[nH]c(=O)c(O)cc2Cc2ccc3ccccc3c2)cc1 [Compound 27, 4-(5-Hydroxy-3-(naphthalen-2-ylmethyl)-6-oxo-1,6-dihydropyridin-2-yl)benzonitrile] | 0.335 kcal/(mol·NHA) | 250 nM | –
7 | O=c1[nH]c(-c2ccc(F)cc2)c(-c2ccc(-c3nnn[nH]3)cc2)cc1O [Compound 2] | – | – | EC50 [1]: 11000 nM
8 | CC(=O)NS(=O)(=O)c1ccc(-c2cc(O)c(=O)[nH]c2-c2ccc(F)cc2)cc1 [Compound 16, N-((4-(2-(4-Fluorophenyl)-5-hydroxy-6-oxo-1,6-dihydropyridin-3-yl)phenyl)sulfonyl)acetamide] | 0.335 kcal/(mol·NHA) | 145 nM | –
9 | Cn1nnc(-c2ccc(-c3cc(O)c(=O)[nH]c3-c3ccc(F)cc3)cc2)n1 [Compound 14, 6-(4-Fluorophenyl)-3-hydroxy-5-(4-(2-methyl-2H-tetrazol-5-yl)phenyl)pyridin-2(1H)-one] | 0.348 kcal/(mol·NHA) | 138 nM | –
10 | N#Cc1ccc(-c2cc(O)c(=O)[nH]c2Cc2ccc3ccccc3c2)cc1 [Compound 20, 4-(5-Hydroxy-2-(naphthalen-2-ylmethyl)-6-oxo-1,6-dihydropyridin-3-yl)benzonitrile] | 0.314 kcal/(mol·NHA) | 660 nM | –
11 | N#Cc1ccc(-c2cc(O)c(=O)[nH]c2-c2cccc3ccccc23)cc1 [Compound 8, 4-(5-Hydroxy-2-(naphthalen-1-yl)-6-oxo-1,6-dihydropyridin-3-yl)benzonitrile] | 0.351 kcal/(mol·NHA) | 220 nM | –
12 | N#Cc1ccc(-c2[nH]c(=O)c(O)cc2Cc2cccc3ccccc23)cc1 [Compound 26, 4-(5-Hydroxy-3-(naphthalen-1-ylmethyl)-6-oxo-1,6-dihydropyridin-2-yl)benzonitrile] | 0.343 kcal/(mol·NHA) | 173 nM | –
13 | O=C(O[C@@H]1Cc2c(O)cc(O)cc2O[C@@H]1c1cc(O)c(O)c(O)c1)c1cc(O)c(O)c(O)c1 [epigallocatechin gallate, reference compound] | – | – | ligand efficiency of reference inhibitor (IAV endonuclease; LE = −RTln(IC50)/NHA): 0.249 kcal/(mol·NHA); IC50 (IAV endonuclease; read-out: IC50 of reference inhibitor in this assay, green tea catechin): 1000 nM
14 | O=c1[nH]c(-c2ccc(-c3nnn[nH]3)cc2)c(Cc2cccc3ccccc23)cc1O [Compound 29, 6-(4-(1H-Tetrazol-5-yl)phenyl)-3-hydroxy-5-(naphthalen-1-ylmethyl)pyridin-2(1H)-one] | 0.362 kcal/(mol·NHA) | – | –
15 | N#Cc1ccc(-c2cc(O)c(=O)[nH]c2Cc2ccc(F)cc2)cc1 [Compound 18, 4-(2-(4-Fluorobenzyl)-5-hydroxy-6-oxo-1,6-dihydropyridin-3-yl)benzonitrile] | 0.360 kcal/(mol·NHA) | 507 nM | –
16 | Cn1nnnc1-c1ccc(-c2cc(O)c(=O)[nH]c2-c2ccc(F)cc2)cc1 [Compound 13, 6-(4-Fluorophenyl)-3-hydroxy-5-(4-(1-methyl-1H-tetrazol-5-yl)phenyl)pyridin-2(1H)-one] | 0.331 kcal/(mol·NHA) | 298 nM | –
17 | N#Cc1ccc(-c2[nH]c(=O)c(O)cc2-c2ccc(F)cc2)cc1 [Compound 6] | 0.433 kcal/(mol·NHA) | – | –
18 | N#Cc1ccc(-c2cc(O)c(=O)[nH]c2-c2ccc3ccccc3c2)cc1 [Compound 10, 4-(5-Hydroxy-2-(naphthalen-2-yl)-6-oxo-1,6-dihydropyridin-3-yl)benzonitrile] | 0.330 kcal/(mol·NHA) | – | –
19 | O=c1[nH]c(-c2ccc3ccccc3c2)c(-c2ccc(-c3nn[nH]n3)cc2)cc1O [tetrazole derivative of 10, 6-(2-naphthyl)-5-(p-(5-tetrazoyl)phenyl)-3-hydroxypyridin-2(1H)-one] | – | – | Stability of the isolated product [2]: unexpectedly unstable
20 | O=c1[nH]c(-c2ccc(-c3nnn[nH]3)cc2)c(Cc2ccc(F)cc2)cc1O [Compound 28, 6-(4-(1H-Tetrazol-5-yl)phenyl)-5-(4-fluorobenzyl)-3-hydroxypyridin-2(1H)-one] | 0.369 kcal/(mol·NHA) | 54 nM | –
21 | O=c1[nH]c(-c2ccc(-c3nnn[nH]3)cc2)c(Cc2ccc3ccccc3c2)cc1O [Compound 30, 6-(4-(1H-Tetrazol-5-yl)phenyl)-3-hydroxy-5-(naphthalen-2-ylmethyl)pyridin-2(1H)-one] | 0.324 kcal/(mol·NHA) | – | –
22 | O=c1[nH]c(Cc2cccc3ccccc23)c(-c2ccc(-c3nnn[nH]3)cc2)cc1O [Compound 22, 5-(4-(1H-Tetrazol-5-yl)phenyl)-3-hydroxy-6-(naphthalen-1-ylmethyl)pyridin-2(1H)-one] | 0.358 kcal/(mol·NHA) | – | –
23 | N#Cc1ccc(-c2cc(O)c(=O)[nH]c2-c2ccc(F)cc2)cc1 [Compound 1] | 0.409 kcal/(mol·NHA) | – | –
24 | O=C(O)c1ccc(-c2[nH]c(=O)c(O)cc2-c2ccc(F)cc2)cc1 [Compound 24, 4-(3-(4-Fluorophenyl)-5-hydroxy-6-oxo-1,6-dihydropyridin-2-yl)benzoic acid] | 0.415 kcal/(mol·NHA) | 55 nM | –
25 | COC(=O)c1ccc(-c2cc(O)c(=O)[nH]c2-c2ccc(F)cc2)cc1 [Compound 12, Methyl 4-(2-(4-fluorophenyl)-5-hydroxy-6-oxo-1,6-dihydropyridin-3-yl)benzoate] | – | 125 nM | –
26 | N#Cc1ccc(-c2[nH]c(=O)c(O)cc2Cc2ccc(F)cc2)cc1 [Compound 25, 4-(3-(4-Fluorobenzyl)-5-hydroxy-6-oxo-1,6-dihydropyridin-2-yl)benzonitrile] | 0.361 kcal/(mol·NHA) | 484 nM | –
27 | O=c1[nH]c(-c2ccc(F)cc2)c(-c2ccc(-c3cnn[nH]3)cc2)cc1O [Compound 17, 5-(4-(1H-1,2,3-Triazol-5-yl)phenyl)-6-(4-fluorophenyl)-3-hydroxypyridin-2(1H)-one] | 0.401 kcal/(mol·NHA) | 25 nM | –
28 | O=C(O)c1ccc(-c2cc(O)c(=O)[nH]c2-c2ccc(F)cc2)cc1 [Compound 11, 4-(2-(4-Fluorophenyl)-5-hydroxy-6-oxo-1,6-dihydropyridin-3-yl)benzoic acid] | 0.455 kcal/(mol·NHA) | 11 nM | –
29 | NS(=O)(=O)c1ccc(-c2cc(O)c(=O)[nH]c2-c2ccc(F)cc2)cc1 [Compound 15, 4-(2-(4-Fluorophenyl)-5-hydroxy-6-oxo-1,6-dihydropyridin-3-yl)benzenesulfonamide] | 0.354 kcal/(mol·NHA) | 347 nM | –
